Results from patent US9403776B2, “Aryl- and heteroaryl-substituted tetrahydrobenzazepines and use thereof to block reuptake of norepinephrine, dopamine, and serotonin” (Albany Molecular Research, Inc., priority 2005, dated 2016).
Where a name gives a salt, the structure may show the parent alone.

Structure (SMILES) | melting point [°C]
COc1ccc2c(c1)CN(C)CCC2c1ccc(F)cc1 (single isomer, unassigned; (-)) (as salt: hydrochloride) [Example 4 (−), (−)-5-(4-fluorophenyl)-8-methoxy-2-methyl-2,3,4,5-tetrahydro-1H-benzo[c]azepine] | 246 to 248
COc1ccc(C2CCN(C)Cc3cc(OC)ccc32)cc1 (single isomer, unassigned; (-)) (as salt: hydrochloride) [Example 6 (−), (−)-5-(4-methoxyphenyl)-8-methoxy-2-methyl-2,3,4,5-tetrahydro-1H-benzo[c]azepine] | 193 to 194
COc1ccc2c(c1)CN(C)CCC2c1ccc(Cl)cc1 (single isomer, unassigned; (-)) (as salt: hydrochloride) [Example 8 (−), (−)-5-(4-chlorophenyl)-8-methoxy-2-methyl-2,3,4,5-tetrahydro-1H-benzo[c]azepine] | 210 to 211
CN1CCC(c2ccc(F)cc2)c2ccc(O)cc2C1 (single isomer, unassigned; (-)) (as salt: hydrochloride) [Example 14, (−)-5-(4-fluorophenyl)-2-methyl-2,3,4,5-tetrahydro-1H-benzo[c]azepin-8-ol] | 159 to 161
CN1CCC(c2ccc(Cl)cc2)c2ccc(-c3cnccn3)cc2C1 (single isomer, unassigned; (-)) (as salt: maleate) [Example 41 (−), (−)-5-(4-chlorophenyl)-2-methyl-8-(pyrazin-2-yl)-2,3,4,5-tetrahydro-1H-benzo[c]azepine] | 82 to 84
Cc1noc(C)c1-c1ccc2c(c1)CN(C)CCC2c1ccc(Cl)cc1 (single isomer, unassigned; (-)) (as salt: maleate) [Example 42, (−)-5-(4-chlorophenyl)-8-(3,5-dimethylisoxazol-4-yl)-2-methyl-2,3,4,5-tetrahydro-1H-benzo[c]azepine] | 66 to 68
CN1CCC(c2ccc(Cl)cc2)c2ccc(-c3ccc(N(C)C)nn3)cc2C1 (single isomer, unassigned; (-)) (as salt: maleate) [Example 46, (−)-{6-[5-(4-chlorophenyl)-2-methyl-2,3,4,5-tetrahydro-1H-benzo[c]azepine-8-yl]-pyridazin-3-yl}-dimethylamine] | 109 to 110
CN1CCC(c2ccc(Cl)cc2)c2ccc(N3CCOCC3)cc2C1 (single isomer, unassigned; (-)) (as salt: maleate) [Example 47, (−)-4-(5-(4-chlorophenyl)-2-methyl-2,3,4,5-tetrahydro-1H-benzo[c]azepin-8-yl)morpholine] | 99 to 100
COc1ccc2c(c1)CN(C)CCC2c1ccc2sccc2c1 (single isomer, unassigned; (-)) (as salt: maleate) [Example 52 (−), (−)-5-benzo[b]thiophen-5-yl-8-methoxy-2-methyl-2,3,4,5-tetrahydro-1H-benzo[c]azepine] | 92 to 95
CCN1CCC(c2ccccc2)c2ccc(N3CCOCC3)cc2C1 (single isomer, unassigned; (-)) (as salt: maleate) [Example 57 (−), (−)-4-(2-ethyl-5-phenyl-2,3,4,5-tetrahydro-1H-benzo[c]azepin-8-yl)morpholine] | 68 to 72
CC(C)N1CCC(c2ccccc2)c2ccc(N3CCOCC3)cc2C1 (single isomer, unassigned; (-)) (as salt: maleate) [Example 58 (−), (−)-4-(2-isopropyl-5-phenyl-2,3,4,5-tetrahydro-1H-benzo[c]azepin-8-yl)morpholine] | 195 to 197
CN1CCC(c2ccccc2)c2ccc(N3CCN(c4ccccn4)CC3)cc2C1 (single isomer, unassigned; (-)) (as salt: tartrate) [Example 68 (−), (−)-2-methyl-5-phenyl-8-(4-(pyridine-2-yl)piperazin-1-yl)-2,3,4,5-tetrahydro-1H-benzo[c]azepine] | 112 to 115

Results, then the molecule that gave them:

melting point [°C] | Structure (SMILES)
111 to 117 | CN1CCC(c2ccc3sccc3c2)c2ccc(-c3cncnc3)cc2C1.O=C(O)/C=C\C(=O)O (single isomer, unassigned; (+)) [Example 104, (+)-5-(benzo[b]thiophen-5-yl)-2-methyl-8-(pyrimidin-5-yl)-2,3,4,5-tetrahydro-1H-benzo[c]azepine, maleate salt]
102 to 108 | CN1CCC(c2ccc3sccc3c2)c2ccc(-c3cnccn3)cc2C1.O=C(O)/C=C\C(=O)O (single isomer, unassigned; (+)) [Example 105, (+)-5-(benzo[b]thiophen-5-yl)-2-methyl-8-(pyrazin-2-yl)-2,3,4,5-tetrahydro-1H-benzo[c]azepine, maleate salt]
105 to 109 | Cc1ccc(-c2ccc3c(c2)CN(C)CCC3c2ccc3sccc3c2)nn1.O=C(O)/C=C\C(=O)O (single isomer, unassigned; (+)) [Example 106, (+)-5-(benzo[b]thiophen-5-yl)-2-methyl-8-(6-methylpyridazin-3-yl)-2,3,4,5-tetrahydro-1H-benzo[c]azepine, maleate salt]
117 to 121 | CN1CCC(c2ccc3sccc3c2)c2ccc(-c3cccnn3)cc2C1.O=C(O)/C=C\C(=O)O (single isomer, unassigned; (+)) [Example 107, (+)-5-(benzo[b]thiophen-5-yl)-2-methyl-8-(pyridazin-3-yl)-2,3,4,5-tetrahydro-1H-benzo[c]azepine, maleate salt]
107 to 110 | Cc1ccc(-c2ccc3c(c2)CN(C)CCC3c2cccc(F)c2)nn1 (single isomer, unassigned; (-)) (as salt: citrate) [Example 84 (−), (−)-5-(3-fluorophenyl)-2-methyl-8-(6-methylpyridazin-3-yl)-2,3,4,5-tetrahydro-1H-benzo[c]azepine]
122 to 127 | Cc1ccc(-c2ccc3c(c2)CN(C)CCC3c2ccc(C#N)c(F)c2)nn1 (single isomer, unassigned; (-)) (as salt: tartrate) [Example 92 (−), (−)-2-fluoro-4-(2-methyl-8-(6-methylpyridazin-3-yl)-2,3,4,5-tetrahydro-1H-benzo[c]azepin-5-yl)benzonitrile]
